# Laboratory results from patent publication US6433012B1, “Method for inhibiting inflammatory disease” (Large Scale Biology Corp., priority 1998, dated 2002).
# Tested on: corneal neovascularization induced by bFGF
# Assay: Rat corneal neovascularization assay
# Format: in vivo, Fischer 344 rats
# Parameters: total vascular area: unit not given here
# Conditions: oral gavage 500 mg/kg twice a day for 6 days
# Description: Hydron polymer (Interferon Sciences, New Brunswick, N.J.) was dissolved in ethanol to a concentration of 12% (W/V). A 1:1 mixture of 12% Hydron and bFGF/Sucralfate/PBS suspension was made as a casting solution and 3 μl of this solution was pipetted onto a sterile Teflon sheet and allowed to dry overnight at 4° C. Each dried pellet contained 50 ng of bFGF and 20 μg of Sucralfate. Female Fischer 344 rats (16 animals, 8-10 weeks old at an approximate weight of 150 g; Charles River, Raleigh, N.C.) were used for this study. Animals were kept in temperature-controlled rooms (24° C.) on a 12-h light-dark cycle with access to rat chow and tap water ad libitum. Following anesthesia with sodium pentobarbital given i.p. at 50 mg/kg body weight, a rat was placed under a dissecting microscope and a drop of Ophthaine was applied on the cornea of one eye. The eye was proptosed by stretching sutures on the upper and lower eyelids. A small superficial incision was made through the cornea center and a micropocket was created by separating the lamella of the stroma toward the limbus with a modified iris spatula. The distance between the bottom of the micropocket and the limbus was about 1 mm. A prepared sterile Hydron pellet was rehydrated with a drop of sterile saline and placed into the corneal micropocket. The cornea was covered with gentamycin ophthalmic ointment (Alleran, Inc., Irvine, Calif.) after surgery. Rats were randomly divided into treated and control groups. […] The drug was administrated by oral gavage at a dose of 500 mg/kg body weight, twice a day for 6 days beginning from the first postoperative day. The controls received vehicle only, and body weights of all animals were monitored and recorded daily. On the seventh postoperative day, animals were anesthetized with nembutal (50 mg/kg) and the thoracic aorta was rapidly cannulated in a retrograde fashion with PE 100 tubing. An incision was made in the right auricle for drainage of blood and saline during flushing and 40-60 mL of saline was injected via the tubing to wash out the blood from the vessels in the upper part of the body until the eyes, ears and nose became pale. Then 10 mL of Higgins waterproof Indian ink (Sanford, Bellwood, Ill.) was injected via the tubing to visualize corneal vessels. The eyes were enucleated, fixed in 10% neutralized formaldehyde buffer, and the corneas were dissected and mounted on slides. Slide-mounted corneal images were taken by using a Carl Zeiss MPS intravital microscope (Carl Zeiss, Hanover, Md.) with a camera connected to a PC equipped with Scion Image software and a frame grabber (Scion Corporation, Frederick, Md.).
# For the quantitative analysis of corneal neovascularization, various parameters of the corneal images were measured by an investigator who was unaware of the treatment protocol. The shortest distance between the implanted pellet and the limbus was marked as the midline and was measured. The arc along the limbus for the entire vascularized area was drawn and the length of the arc was measured. The circumference of this area was calculated by using the following equation: Circumference (in clock hours)=Arc length×360/πD/30, where D is the corneal diameter. The marked arc was evenly divided into six sections, distances between vessel tips and the limbus at the five intersection points of the arc were measured, and the average vessel length was calculated. The perpendicular distance between the tip of the longest vessel and the limbus (longest vessel length) was also measured. To measure the percent vascular volume (i.e., the vascular volume density), three circles with a diameter of 100 pixels were located between the pellet and the limbus on the midline in the second and the fifth sections, respectively. The total area of each circle (Area-T) and the area for vessels in each circle (total black pixels) were measured (Area-V). […]
structure (smiles),measurement,setting,value
"COC(=O)c1cc(I)c(Oc2ccc(OC)cc2)c(I)c1 [BTO-956, methyl-3,5-diiodo-4-(4′-methoxyphenoxy)benzoate]",body weight loss or behavioral changes,,No significant body weight loss or behavioral changes
same,average vessel length,mean ± SEM,0.42±0.07 mm
same,circumference of corneal neovascularization,mean ± SEM,1.74±0.11 clock hours
same,maximum vessel length,mean ± SEM,0.76±0.09 mm
same,total vascular area,mean ± SEM,1.52±0.27
same,vascular volume density,mean ± SEM,0.037±0.01
same,reduction of average vessel length relative to controls,p<0.001,50%
same,decrease of total vascular area compared with controls,p<0.01,65%
same,decrease of vascular volume density compared with controls,p<0.01,84.5%
same,reduction of circumference of neovascularization compared with controls,p<0.01,45%
same,reduction of maximum vessel length relative to controls,p<0.01,38%
